The record followed here is the supplement of paper PMC10307832.

Holding throughout (assay): relative viability (nuclei count vs DMSO), 5 days (fraction); higher = more cells survive
Compound in test [1]: CCN(CCO)CCCC(C)Nc1ccnc2cc(Cl)ccc12 [Hydroxychloroquine] + Nc1nc2[nH]cc(CCc3ccc(C(=O)N[C@@H](CCC(=O)O)C(=O)O)cc3)c2c(=O)[nH]1 [Pemetrexed] (partner 0.2 µM)
The procedure, abridged: (§1)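 Lung cancer cell lines in 1536-well plates got either a single drug or a fixed anchor-drug dose together with five library-drug doses (not always all listed) in √10 steps, by pin tool, on the day after seeding. Nuclei were counted after 5 days, and relative viability is the treated-to-vehicle ratio of nuclei counts. Values are medians of duplicate plates.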

Compound in test [2]: CCN(CCO)CCCC(C)Nc1ccnc2cc(Cl)ccc12 [Hydroxychloroquine] + CC1(C)CCC(c2ccc(Cl)cc2)=C(CN2CCN(c3ccc(C(=O)NS(=O)(=O)c4ccc(N[C@H](CCN5CCOCC5)CSc5ccccc5)c(S(=O)(=O)C(F)(F)F)c4)cc3)CC2)C1 [Navitoclax] (partner 0.5 µM)
The method, boiled down: as §1

Compound in test [3]: CCN(CCO)CCCC(C)Nc1ccnc2cc(Cl)ccc12 [Hydroxychloroquine] + CC(=O)Nc1cccc(-n2c(=O)n(C3CC3)c(=O)c3c(Nc4ccc(I)cc4F)n(C)c(=O)c(C)c32)c1 [Trametinib] (partner 0.02 µM)
The method, boiled down: as §1

Compound in test [4]: CCN(CCO)CCCC(C)Nc1ccnc2cc(Cl)ccc12 [Hydroxychloroquine] + N=C(N)NC(=N)NCCc1ccccc1 [Phenformin] (partner 250 µM)
The procedure, abridged: as §1

With NCI-H2347, the relative viability in test [1] (first compound 0.5 µM) was 0.481; in test [1] (first compound 1.581 µM) it was 0.401; in test [1] (first compound 5 µM), 0.444; in test [1] (first compound 15.81 µM), 0.413; in test [1] (first compound 50 µM), 0.452; in test [2] (first compound 0.5 µM) it was 0.784. The relative viability in test [2] (first compound 1.581 µM) was 0.81; in test [2] (first compound 5 µM) it was 0.689; in test [2] (first compound 15.81 µM), 0.851; in test [2] (first compound 50 µM), 0.702; in test [3] (first compound 0.5 µM), 0.293; in test [3] (first compound 1.581 µM) it was 0.248. The relative viability in test [3] (first compound 5 µM) was found to be 0.272; in test [3] (first compound 15.81 µM) it was 0.281; in test [3] (first compound 50 µM) it was 0.325; in test [4] (first compound 0.5 µM), 0.469; in test [4] (first compound 1.581 µM), 0.466; in test [4] (first compound 5 µM), 0.446. The relative viability was 0.329 in test [4] (first compound 15.81 µM) and 0.377 in test [4] (first compound 50 µM).
Regarding NCI-H2126, the relative viability in test [1] (first compound 0.5 µM) is 0.709; in test [1] (first compound 1.581 µM), 0.636; in test [1] (first compound 5 µM), 0.666; in test [1] (first compound 15.81 µM), 0.653; in test [1] (first compound 50 µM) it was 0.716; in test [2] (first compound 0.5 µM), 0.859. Besides, the relative viability was determined as 0.804 in test [2] (first compound 1.581 µM); 0.848 in test [2] (first compound 5 µM); 0.884 in test [2] (first compound 15.81 µM); 0.833 in test [2] (first compound 50 µM); 0.5 in test [3] (first compound 0.5 µM); 0.516 in test [3] (first compound 1.581 µM). Moreover, the relative viability in test [3] (first compound 5 µM) was found to be 0.603; in test [3] (first compound 15.81 µM), 0.544; in test [3] (first compound 50 µM), 0.55; in test [4] (first compound 0.5 µM) it was 0.528; in test [4] (first compound 1.581 µM), 0.534; in test [4] (first compound 5 µM), 0.56. In addition, the relative viability in test [4] (first compound 15.81 µM) came to 0.521; in test [4] (first compound 50 µM), 0.506.
HCC-827: the relative viability is 0.225 in test [1] (first compound 0.5 µM); 0.275 in test [1] (first compound 1.581 µM); 0.259 in test [1] (first compound 5 µM); 0.259 in test [1] (first compound 15.81 µM); 0.23 in test [1] (first compound 50 µM); 0.941 in test [2] (first compound 0.5 µM). Besides, the relative viability worked out at 1.02 in test [2] (first compound 1.581 µM); 1.03 in test [2] (first compound 5 µM); 1.1 in test [2] (first compound 15.81 µM); 1.02 in test [2] (first compound 50 µM); 0.506 in test [3] (first compound 0.5 µM); 0.479 in test [3] (first compound 1.581 µM). Moreover, the relative viability came out at 0.488 in test [3] (first compound 5 µM); 0.563 in test [3] (first compound 15.81 µM); 0.531 in test [3] (first compound 50 µM); 0.447 in test [4] (first compound 0.5 µM); 0.339 in test [4] (first compound 1.581 µM); 0.359 in test [4] (first compound 5 µM). Also, the relative viability stood at 0.395 in test [4] (first compound 15.81 µM) and 0.414 in test [4] (first compound 50 µM).
Turning to NCI-H3122, the relative viability was found to be 0.189 in test [1] (first compound 0.5 µM); 0.205 in test [1] (first compound 1.581 µM); 0.359 in test [1] (first compound 5 µM); 0.188 in test [1] (first compound 15.81 µM); 0.199 in test [1] (first compound 50 µM); 1.03 in test [2] (first compound 0.5 µM). In addition, the relative viability in test [2] (first compound 1.581 µM) is 0.994; in test [2] (first compound 5 µM), 1.01; in test [2] (first compound 15.81 µM), 1.04; in test [2] (first compound 50 µM), 1.03; in test [3] (first compound 0.5 µM) it was 0.19; in test [3] (first compound 1.581 µM), 0.215. Further, the relative viability in test [3] (first compound 5 µM) was found to be 0.2; in test [3] (first compound 15.81 µM), 0.319; in test [3] (first compound 50 µM), 0.232; in test [4] (first compound 0.5 µM), 0.379; in test [4] (first compound 1.581 µM) it was 0.364; in test [4] (first compound 5 µM), 0.373. The results for the relative viability in test [4] (first compound 15.81 µM) and in test [4] (first compound 50 µM) were 0.358 and 0.344, respectively.
Turning to HOP-62, the relative viability in test [1] (first compound 0.5 µM) was 0.331; in test [1] (first compound 1.581 µM) it was 0.312; in test [1] (first compound 5 µM), 0.33; in test [1] (first compound 15.81 µM), 0.344; in test [1] (first compound 50 µM), 0.343; in test [2] (first compound 0.5 µM) it was 0.962. Moreover, the relative viability in test [2] (first compound 1.581 µM) amounted to 1.13; in test [2] (first compound 5 µM) it was 1.1; in test [2] (first compound 15.81 µM), 1.03; in test [2] (first compound 50 µM), 1.13; in test [3] (first compound 0.5 µM), 0.37; in test [3] (first compound 1.581 µM), 0.387. Moreover, the relative viability in test [3] (first compound 5 µM) worked out at 0.386; in test [3] (first compound 15.81 µM) it was 0.397; in test [3] (first compound 50 µM) it was 0.341; in test [4] (first compound 0.5 µM), 0.557; in test [4] (first compound 1.581 µM), 0.603; in test [4] (first compound 5 µM) it was 0.762. Besides, the relative viability worked out at 0.686 in test [4] (first compound 15.81 µM) and 0.755 in test [4] (first compound 50 µM).
For HCC-44, the relative viability in test [1] (first compound 0.5 µM) worked out at 0.635; in test [1] (first compound 1.581 µM) it was 0.709; in test [1] (first compound 5 µM), 0.653; in test [1] (first compound 15.81 µM) it was 0.655; in test [1] (first compound 50 µM), 0.659; in test [2] (first compound 0.5 µM), 1.02. The relative viability in test [2] (first compound 1.581 µM) turned out to be 1; in test [2] (first compound 5 µM) it was 0.964; in test [2] (first compound 15.81 µM) it was 0.994; in test [2] (first compound 50 µM), 1.06; in test [3] (first compound 0.5 µM), 1.07; in test [3] (first compound 1.581 µM), 1.04. For the same cell line, the relative viability was 1.14 in test [3] (first compound 5 µM); 1.08 in test [3] (first compound 15.81 µM); 1.1 in test [3] (first compound 50 µM); 0.316 in test [4] (first compound 0.5 µM); 0.145 in test [4] (first compound 1.581 µM); 0.171 in test [4] (first compound 5 µM). For the same cell line, the relative viability is 0.226 in test [4] (first compound 15.81 µM) and 0.234 in test [4] (first compound 50 µM).
